Experimental findings from paper PMC9780108, “An intrinsically disordered antimicrobial peptide dendrimer from stereorandomized virtual screening” (Cell Reports. Physical Science, 2022) are described below.

One assay has as its system S. maltophilia. The settings on record: pH 7.4.
Another assay relates to P. aeruginosa PA14. The settings on record: PA14, pH 7.4.
The subject of a further assay is K. pneumoniae OXA-48. The settings on record: OXA-48, pH 7.4.
A further assay concerns P. aeruginosa PAO1. The conditions noted are these: for MIC at pH 5.0, P. aeruginosa PAO1: PAO1, pH 5; for MIC at pH 7.4, P. aeruginosa PAO1: PAO1, pH 7.4; for MIC at pH 8.0, P. aeruginosa PAO1: PAO1, pH 8.
The subject of a further assay is A. baumannii ATCC 19606. The settings on record: for MIC at pH 5.0, A. baumannii ATCC 19606: ATCC 19606, pH 5; for MIC at pH 7.4, A. baumannii ATCC 19606: ATCC 19606, pH 7.4; for MIC at pH 8.0, A. baumannii ATCC 19606: ATCC 19606, pH 8.
Another assay relates to E. coli W3110. The conditions noted are these: for MIC at pH 5.0, E. coli W3110: W3110, pH 5; for MIC at pH 7.4, E. coli W3110: W3110, pH 7.4; for MIC at pH 8.0, E. coli W3110: W3110, pH 8.
The test system of another assay is E. cloacae. The settings on record: pH 7.4.
The subject of a further assay is S. aureus Newman. The settings on record: Newman, pH 7.4.
The subject of the next assay is K. pneumoniae NCTC 418. The settings on record: for MIC at pH 5.0, K. pneumoniae NCTC 418: NCTC 418, pH 5; for MIC at pH 7.4, K. pneumoniae NCTC 418: NCTC 418, pH 7.4; for MIC at pH 8.0, K. pneumoniae NCTC 418: NCTC 418, pH 8.
The subject of a further assay is P. aeruginosa ZEM-1A. The settings on record: ZEM-1A, pH 7.4.
For a further assay, the system named is HEK293 cell line. It counts as cell-based. The settings on record: 48 h. An outline of the steps: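 HEK293 cells seeded at 2 × 10³/well, incubated 48 h at 37 °C with serially diluted compounds (stock 2 mg/mL) in DMEM with 10% FBS. AlamarBlue added at 10% final for 3–5 h; fluorescence ex 560/em 590 nm, normalized to untreated cells.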
A further assay relates to B. cenocepacia. The settings on record: pH 7.4.
The subject of the next assay is P. aeruginosa ZEM9A. The settings on record: ZEM9A, pH 7.4.
For assay [1], the system named is S aureus COL (methicillin-resistant Staphylococcus aureus). The conditions noted are these: for MIC at pH 5.0, S aureus COL: COL (methicillin-resistant, pH 5); for MIC at pH 7.4, S aureus COL: COL (methicillin-resistant, pH 7.4); for MIC at pH 8.0, S aureus COL: COL (methicillin-resistant, pH 8).

Converted amounts (≈) assume the structure as drawn. Residues, ends and D or L forms follow the SMILES beside them.

As for `CC(C)C[C@H](NC(=O)[C@H](CCCCN)NC(=O)[C@H](CCCCNC(=O)[C@H](CC(C)C)NC(=O)[C@H](CCCCN)NC(=O)[C@H](CCCCNC(=O)[C@H](CC(C)C)NC(=O)[C@H](CCCCN)NC(=O)[C@H](CCCCNC(=O)[C@H](CC(C)C)NC(=O)[C@@H](N)CCCCN)NC(=O)[C@H](CC(C)C)NC(=O)[C@@H](N)CCCCN)NC(=O)[C@H](CC(C)C)NC(=O)[C@H](CCCCN)NC(=O)[C@H](CCCCNC(=O)[C@H](CC(C)C)NC(=O)[C@@H](N)CCCCN)NC(=O)[C@H](CC(C)C)NC(=O)[C@@H](N)CCCCN)NC(=O)[C@H](CC(C)C)NC(=O)[C@H](CCCCN)NC(=O)[C@H](CCCCNC(=O)[C@H](CC(C)C)NC(=O)[C@H](CCCCN)NC(=O)[C@H](CCCCNC(=O)[C@H](CC(C)C)NC(=O)[C@@H](N)CCCCN)NC(=O)[C@H](CC(C)C)NC(=O)[C@@H](N)CCCCN)NC(=O)[C@H](CC(C)C)NC(=O)[C@H](CCCCN)NC(=O)[C@H](CCCCNC(=O)[C@H](CC(C)C)NC(=O)[C@@H](N)CCCCN)NC(=O)[C@H](CC(C)C)NC(=O)[C@@H](N)CCCCN)C(N)=O` [L-G3KL, reference compound] (HELM PEPTIDE1{K.L.K.K.L.K.K.L.K.K.L.[am]}|PEPTIDE2{K.L}|PEPTIDE3{K.L.K.K.L.K.K.L}|PEPTIDE4{K.L}|PEPTIDE5{K.L.K.K.L}|PEPTIDE6{K.L}|PEPTIDE7{K.L.K.K.L}|PEPTIDE8{K.L}$PEPTIDE1,PEPTIDE2,3:R3-2:R2|PEPTIDE3,PEPTIDE4,3:R3-2:R2|PEPTIDE5,PEPTIDE6,3:R3-2:R2|PEPTIDE7,PEPTIDE8,3:R3-2:R2|PEPTIDE1,PEPTIDE7,6:R3-5:R2|PEPTIDE1,PEPTIDE3,9:R3-8:R2|PEPTIDE3,PEPTIDE5,6:R3-5:R2$$$V2.0), the “MIC, S. maltophilia” value against S. maltophilia was determined as 8 µg/mL (≈ 1.76 µM). In the assay with P. aeruginosa PA14, the “MIC, P. aeruginosa PA14” value fell in the range of 2 to 4 µg/mL. Besides, the “MIC, K. pneumoniae OXA-48” value against K. pneumoniae OXA-48 is greater than 64 µg/mL. For the same compound, in the assay on P. aeruginosa PAO1, the “MIC at pH 5.0, P. aeruginosa PAO1” value turned out to be 16 μg/mL; the “MIC at pH 7.4, P. aeruginosa PAO1” value was determined as 4 μg/mL; the “MIC at pH 8.0, P. aeruginosa PAO1” value is on record as 1 μg/mL. Further, in the assay with A. baumannii ATCC 19606, the “MIC at pH 5.0, A. baumannii ATCC 19606” value is recorded as 8 μg/mL; the minimal inhibitory concentration (MIC) at pH 7.4, A. baumannii ATCC 19606 amounted to 8 μg/mL; the “MIC at pH 8.0, A. baumannii ATCC 19606” value came to 1 μg/mL. Also, in the assay with E. coli W3110, the “MIC at pH 5.0, E. coli W3110” value is 32 μg/mL; the minimum inhibitory concentration (MIC) at pH 7.4, E. coli W3110 amounted to 8 μg/mL; the “MIC at pH 8.0, E. coli W3110” value is given as 1–2 μg/mL. Besides, in the assay with E. cloacae, the “MIC, E. cloacae” value was 8 µg/mL (≈ 1.76 µM). Further, in the assay with S. aureus Newman, the “MIC, S. aureus Newman” value was greater than 64 µg/mL. Besides, in the assay on K. pneumoniae NCTC 418, the “MIC at pH 5.0, K. pneumoniae NCTC 418” value is given as greater than 64 μg/mL; the minimal inhibitory concentration (MIC) at pH 7.4, K. pneumoniae NCTC 418 is greater than 64 μg/mL; the “MIC at pH 8.0, K. pneumoniae NCTC 418” value amounted to 4 μg/mL. Besides, the “MIC, P. aeruginosa ZEM-1A” value with P. aeruginosa ZEM-1A is 4 µg/mL (≈ 0.882 µM). Also, in the assay with HEK293 cell line, the “IC50 HEK293” value stood at 460 ± 17 µg/mL (≈ 101 µM). For the same compound, the “MIC, B. cenocepacia” value against B. cenocepacia is greater than 64 µg/mL. Moreover, in the assay on P. aeruginosa ZEM9A, the “MIC, P. aeruginosa ZEM9A” value stood at 16 µg/mL (≈ 3.53 µM). Moreover, in assay [1], the “MIC at pH 5.0, S aureus COL” value was greater than 64 μg/mL; the “MIC at pH 7.4, S aureus COL” value is recorded as greater than 64 μg/mL; the “MIC at pH 8.0, S aureus COL” value is 2 μg/mL.
`CC(C)C[C@@H](NC(=O)[C@H](N)CCCCN)C(=O)NCCCC[C@@H](NC(=O)[C@@H](CC(C)C)NC(=O)[C@H](N)CCCCN)C(=O)N[C@H](CC(C)C)C(=O)NCCCC[C@@H](NC(=O)[C@@H](CC(C)C)NC(=O)[C@@H](CCCCNC(=O)[C@@H](CC(C)C)NC(=O)[C@H](N)CCCCN)NC(=O)[C@@H](CC(C)C)NC(=O)[C@H](N)CCCCN)C(=O)N[C@H](CCCCN)C(=O)N[C@H](CC(C)C)C(=O)N[C@H](CC(C)C)C(=O)NCCCC[C@@H](NC(=O)[C@@H](CC(C)C)NC(=O)[C@@H](CC(C)C)NC(=O)[C@@H](CCCCN)NC(=O)[C@@H](CCCCNC(=O)[C@@H](CC(C)C)NC(=O)[C@@H](CCCCNC(=O)[C@@H](CC(C)C)NC(=O)[C@H](N)CCCCN)NC(=O)[C@@H](CC(C)C)NC(=O)[C@H](N)CCCCN)NC(=O)[C@@H](CC(C)C)NC(=O)[C@@H](CCCCNC(=O)[C@@H](CC(C)C)NC(=O)[C@H](N)CCCCN)NC(=O)[C@@H](CC(C)C)NC(=O)[C@H](N)CCCCN)C(=O)N[C@H](CC(C)C)C(=O)N[C@H](CCCCN)C(=O)N[C@H](CCCCN)C(N)=O` [D-X22] (HELM PEPTIDE1{[dK].[dL].[dK].[dL].[dK].[dK].[dL].[dL].[dK].[dL].[dK].[dK].[am]}|PEPTIDE2{[CC(C)C[C@@H](NC(=O)[C@H](N)CCCCN)C(=O)NCCCC[C@@H](NC(=O)[C@@H](CC(C)C)NC(=O)[C@H](N)CCCCN)C(=O)[*:2]].[dL]}|PEPTIDE3{[dK].[dL]}|PEPTIDE4{[dK].[dL].[dK].[dL].[dK].[dK].[dL].[dL]}|PEPTIDE5{[CC(C)C[C@@H](NC(=O)[C@H](N)CCCCN)C(=O)NCCCC[C@@H](NC(=O)[C@@H](CC(C)C)NC(=O)[C@H](N)CCCCN)C(=O)[*:2]].[dL]}|PEPTIDE6{[dK].[dL]}$PEPTIDE1,PEPTIDE2,5:R3-2:R2|PEPTIDE1,PEPTIDE3,3:R3-2:R2|PEPTIDE4,PEPTIDE5,5:R3-2:R2|PEPTIDE4,PEPTIDE6,3:R3-2:R2|PEPTIDE1,PEPTIDE4,9:R3-8:R2$$$V2.0): in the assay with S. maltophilia, the “MIC, S. maltophilia” value came to 4 µg/mL (≈ 0.914 µM). The “MIC, P. aeruginosa PA14” value against P. aeruginosa PA14 came out at 4 µg/mL (≈ 0.914 µM). Further, in the assay on K. pneumoniae OXA-48, the “MIC, K. pneumoniae OXA-48” value is 4 µg/mL (≈ 0.914 µM). Besides, in the assay with P. aeruginosa PAO1, the “MIC at pH 5.0, P. aeruginosa PAO1” value was determined as 16 μg/mL; the “MIC at pH 7.4, P. aeruginosa PAO1” value is 4 μg/mL; the “MIC at pH 8.0, P. aeruginosa PAO1” value amounted to 4 μg/mL. In the assay with A. baumannii ATCC 19606, the minimal inhibitory concentration (MIC) at pH 5.0, A. baumannii ATCC 19606 was found to be 16 μg/mL; the “MIC at pH 7.4, A. baumannii ATCC 19606” value worked out at 8 μg/mL; the “MIC at pH 8.0, A. baumannii ATCC 19606” value was found to be 4 μg/mL. In the assay on E. coli W3110, the “MIC at pH 5.0, E. coli W3110” value is 8 μg/mL; the “MIC at pH 7.4, E. coli W3110” value is reported as 4 μg/mL; the minimal inhibitory concentration (MIC) at pH 8.0, E. coli W3110 is on record as 4 μg/mL. Moreover, the “MIC, E. cloacae” value in the assay with E. cloacae is 8 µg/mL (≈ 1.83 µM). Also, in the assay on S. aureus Newman, the “MIC, S. aureus Newman” value stood at 64 µg/mL (≈ 14.6 µM). For the same compound, in the assay on K. pneumoniae NCTC 418, the minimal inhibitory concentration (MIC) at pH 5.0, K. pneumoniae NCTC 418 is greater than 64 μg/mL; the “MIC at pH 7.4, K. pneumoniae NCTC 418” value is greater than 64 μg/mL; the “MIC at pH 8.0, K. pneumoniae NCTC 418” value turned out to be 16 μg/mL. For the same compound, in the assay with P. aeruginosa ZEM-1A, the “MIC, P. aeruginosa ZEM-1A” value stood at 4 µg/mL (≈ 0.914 µM). Further, the “MIC, B. cenocepacia” value against B. cenocepacia was greater than 64 µg/mL. The “MIC, P. aeruginosa ZEM9A” value against P. aeruginosa ZEM9A amounted to 8 µg/mL (≈ 1.83 µM). In [1], the “MIC at pH 5.0, S aureus COL” value is listed as greater than 64 μg/mL; the “MIC at pH 7.4, S aureus COL” value is greater than 64 μg/mL; the “MIC at pH 8.0, S aureus COL” value was 4 μg/mL.
